Laboratory results taken from patent publication US20260258471A1, “SYSTEMS AND METHODS FOR MICROCOLONY GROWTH AND MICROBIAL CELL CHARACTERIZATION” (priority 2018, published 2026).
Values after ≈ are worked out from the molar mass of the structure shown.

How the values were obtained:
Assay type in all cases: cell-based
Escherichia coli [1] = assay: conventional microdilution methodology (reference)
Protocol: (§1) Intermediate twofold dilutions of antimicrobial agents in broth (Tryptic soy, and in some cases Brain Heart Infusion). 100 μL of the antimicrobial agent/broth solutions were dispensed into each well of 96-well plates in triplicates. Then, to each well 10 μL of the 5×10^6 CFU/mL cell suspension, which was prepared according to the method of example 5, was added. The plate was sealed and placed in the incubator at 35-37° C. for 16-24 hours for MIC value to be determined.

Escherichia coli [2] = assay: Vitek 2 (Biomerieux) reference AST
Escherichia coli [3] = assay: LD-AST (local diffusion antimicrobial susceptibility testing) on annular-disk microwell strips
Protocol: In one case, an LD-AST test strip was fabricated following the method of Examples 9A and 10, coating different concentrations of Norfloxacin on the annular disks in 0-16 μg range. Three types of strips were prepared: low volume agar type with 80 μL of gel per microwell, medium volume agar type with 150 μL of gel per microwell, and high-volume agar type with 350 μL of gel per microwell. The corresponding gel thickness was respectively 2 mm, 4 mm, and 9 mm. The annular disks were then placed on the gels. The images of the microwell strip, for the case of low volume agar type, is presented in FIGS. 23A and 23B, where 220, 221, 222, and 223 respectively, refer to the drug impregnated annular disc, the drug exposure region, the guiding ring, and the gel. 1 μL of Escherichia coli cell suspension, which had been prepared according to the method of Example 12, was dispensed into the ROI of each LD-AST unit. The strips were incubated at 37° C. and their ROI were imaged by an epi-illuminated microscope having a 5× objective once every hour. These images are presented in FIGS. 24A-24C (low volume gel), 25A-C (medium volume gel), and 26A-C (high volume gel) for incubation times of t=3hours, t=4hours and t=overnight, respectively.
The labels in FIGS. 24A-24C show the mass of the of the antimicrobial agent that was coated on the annular disk during preparation. […] Despite this time variation, an effective antimicrobial agent concentration may be associated with each microwell. This effective antimicrobial agent concentration may be estimated, for example, by modeling the diffusion of the antimicrobial agent, as in FIG. 21A, or, for example, by comparing the results of the LD-AST assay to a reference assay such as broth microdilution assay.
In the case of low volume gels (FIG. 24A-24C), since the antimicrobial agent is expected rapidly and efficiently diffuse throughout the volume of the solid phase growth medium, and since it is expected that the antimicrobial agent diffuses nearly completely from the annular disk, the effective antimicrobial agent concentration may be estimated by dividing the mass of the antimicrobial agent that was provided on the annular disk by the volume of the gel. […] Accordingly, the effective antimicrobial agent concentration for the case low-volume gels of FIGS. 24A-24C was estimated to be 0.25 times of the drug mass that was impregnated on the disk. For instance, the drug concentration at the drug exposure region of the annular disk loaded by 16 μg of Norfloxacin is 4 μg/mL.
Comparing FIGS. 24B and 24C, one can observe (or computationally determine) that for the LD-AST unit labeled by 0.5 μg (having an estimated effective concentration of 0.1 μg/ml), there appears to be a lack of visible growth between 3 and 4 hours of incubation. This halting in growth was verified by imaging the ROIs after overnight culture, as illustrated in FIG. 24C. As a result, the MIC value for this test was estimated as 0.1 μg/mL. […]
FIG. 25A-25C and 26A-26C, respectively, correspond to intermediate volume (gel volume of 150 μL in microwell) and high volume (gel volume of 350 μL in microwell) cases. In these cases, due to the larger temporal variation in concentration during incubation, an effective antimicrobial agent concentration may be determined by correlating the observed results with a reference microdilution assay. […]

[4] = system: Methicillin-resistant Staphylococcus aureus (MRSA 111 with not strong resistance); assay: thin strip type LD-AST on clean suspension and positive blood culture
Protocol: Methicillin-resistant Staphylococcus aureus (MRSA 111 with not strong resistance) was spiked into 10 mL of whole blood samples at the nominal concentration of 5-10 CFU/ml. Then, an FA Plus aerobic blood culture bottles were inoculated with 10 mL of spiked whole blood and incubated at 37° C. until the culture turns positive. At this time, 30 μL of glycerol stock of the bacterial cell was inoculated in 3 mL of TSB and incubated at 37° C. for 3 hr with shaking at 150 rpm. Based on OD measurements, serial dilutions of the respective bacteria were prepared in TSB at a nominal concentration of 10^5 CFU/mL. An aliquot of the positive blood sample was diluted in TSB by 1000-fold. The two samples were simultaneously tested for susceptibility against Oxacillin with “thin strip” type LD-AST. The results, which are presented in FIG. 30, indicate similar MIC value of 1 μg/mL.

Staphylococcus aureus [5] = assay: broth microdilution AST according to Example 11
Protocol: as §1

Staphylococcus aureus [6] = assay: Vitek 2 reference AST
Staphylococcus aureus [7] = assay: LD-AST on annular-disk microwell strips
Protocol: In this case, the cell proliferation at the borderline LD-AST unit, such as the one labeled 12 μg, would be preferably determined by image processing. For example, time-lapse microscopic images can be acquired are aligned and difference images (obtained via subtraction of aligned images) may be processed to detect evidence of growth.
In order to further illustrate the insensitivity of the LD-AST to variations of the antimicrobial agent concentration at the ROIs during the first hour of the assay, the assay was performed in two different protocols; a first direct protocol involving immediate inoculation of the microbial cell suspension after contacting the annular disks with the solid phase growth medium, and a second delayed protocol in which the microbial cell suspension was inoculated 1 hour after contacting the annular disks with the solid phase growth medium.
Blank AST paper disks (Hardy Diagnostics, Z7121) that were 6.35 mm in diameter and 0.75 mm thick, were modified to include a 3 mm hole in the center.
Each paper disk has the capacity to absorb approximately 20 μL of liquid before being saturated. For each antibiotic, a two-fold serial dilution in water was made which included concentrations near its suspected MIC value. The disks were separated into individual wells of a 96-well microplate, and then 20 μL of each antibiotic dilution was pipetted over paper disks ensuring that the entire disk was evenly wetted. After incubation for about 20 minutes at room temperature, the disks in the microplate were dried in vacuum desiccator. Alternatively, individual disk separated in the microplate well could be soaked in an excess volume (30 to 50 μL) of the antibiotic dilution. After incubation, the excess fluid is removed by pipette and dried in a vacuum desiccator. The microplate was then covered with an adhesive cover and stored at 4° C.
Tryptic soy agar blood base (Hardy Diagnostics C5221) was prepared with 1% defibrinated sheep's blood according to the manufacturer. While the agar was still warm (45 to 50° C.), it was pipetted into the wells of an 12×8-well strip plate. For “Thin-gel” case, approximately 50 μL of agar was dispensed into an individual well to give a gel thickness of ~1 mm. For the “mid-thick gel” case, approximately 150 μL of agar was dispensed to gel a gel thickness of ~3 mm. Finally, for the “thick gel” case, approximately 350 μL of agar was dispensed to gel a gel thickness of ~7 mm. The agar gels were then cooled to room temperature to solidify, and then either used immediately or stored at 4° C. with an adhesive cover over the wells to prevent gel drying. […]

S. aureus = assay: antimicrobial dilution pipetted directly onto thin-type gel microwells (no annular disk); details: Staphylococcus aureus; 20 μL of two-fold dilutions pipetted onto thin-type microwells; 37° C. until control colonies visible
Protocol: In order to verify the observed difference between the MIC for the low-volume gel and the typical MIC values reported by EUCAST for S. aureus and Vancomycin was not caused by the geometry of the annular disk and its corresponding diffusion dynamics, the following experiment was performed. A two-fold serial dilution of the target antimicrobial agent was prepared in water. Then 20 μL of each dilution was pipetted onto the surface of “thin-type” microwells that were prepared according to the method of Example 10. After about 10 minutes, the antimicrobial agent solution had diffused into top of the gel. 1 μL of a microbial cell suspension was then added and together they were incubated at 37° C. until the microbial colonies at the control well (zero antimicrobial agent concentration) were visible. The MIC found in this manner was 3 μg/mL.

[8] = system: Candida albicans (ATCC 90028); assay: LD-AST against fungal cells; details: thin strip LD-AST; images at 3 and 4 hours, verified overnight
Protocol: A series of LD-AST units having different levels of Amphotoricin B were prepared and tested against Candida albicans (ATCC 90028). […] Therefore, the MIC was determined to be 2 μg/mL. The conclusion of growth at the LD-AST unit corresponding to 1 μg/mL, though not easily noticed in FIG. 29 by visual inspection of t=3 and 4 incubation images, was verified by referring to the overnight incubation row in the figure.
To align imaging data acquired at different time points (2, 3, 4 and 5 hours after seeding), 2D-2D registration (only translation and rotation are permitted) with rigid transformation constrains was performed. The corresponding intensity feature points between the previous time point (tn-1 or tn-2) image, so-called reference, and each further image, so-called floating image, were automatically identified using the key-point detector SURF and used for aligning imaging date with respect to the reference data. Intensity features present at the reference image were classified as background while intensity features appearing on further images (cells/bugs) were classified as foreground. The position of given individual microcolonies have been marked in consecutive images. Setting the background allows enhanced detection of microcolonies and their growth.

For `CCn1cc(C(=O)O)c(=O)c2cc(F)c(N3CCNCC3)cc21` [Norfloxacin], the MIC value (Escherichia coli [1]) was 0.1 µg/mL (≈ 0.313 µM), the “susceptibility category reported by Vitek 2” value (Escherichia coli [2]) was “S” and the MIC (Escherichia coli [2]; Escherichia coli, read-out: MIC value reported by Vitek 2) was at most 0.5 µg/mL. The MIC (Escherichia coli [3]; Escherichia coli, low volume gel strip, no growth between 3 and 4 hours of incubation, verified overnight, read-out: MIC value (estimated effective concentration)) was 0.1 µg/mL (≈ 0.313 µM), the “classification of MIC per CLSI/EUCAST interpretation standards” value (Escherichia coli [3]; LD-AST MIC, low volume gel) was “S” and the “antimicrobial mass label of the microwell at which microbial growth halts” value (Escherichia coli [3]; high volume (gel volume of 350 μL in microwell)) was 1 µg. The “antimicrobial mass label of the microwell at which microbial growth halts” value (Escherichia coli [3]; intermediate volume (gel volume of 150 μL in microwell)) was 1 µg and the “antimicrobial mass coated on annular disk of the LD-AST unit showing lack of visible growth” value (Escherichia coli [3]; low volume gel, between 3 and 4 hours of incubation) was 0.5 µg.
`Cc1onc(-c2ccccc2)c1C(=O)N[C@@H]1C(=O)N2[C@@H]1SC(C)(C)[C@@H]2C(=O)O` [Oxacillin] gave an MIC ([4]; Staphylococcus aureus, MRSA, clean cell suspension in TSB, nominal 10^5 CFU/mL) of 1 µg/mL (≈ 2.49 µM) and an MIC value ([4]; positive blood culture diluted in TSB by 1000-fold) of 1 µg/mL (≈ 2.49 µM).
For `CN[C@H](CC(C)C)C(=O)N[C@H]1C(=O)N[C@@H](CC(N)=O)C(=O)N[C@H]2C(=O)N[C@H]3C(=O)N[C@H](C(=O)N[C@H](C(=O)O)c4cc(O)cc(O)c4-c4cc3ccc4O)[C@H](O)c3ccc(c(Cl)c3)Oc3cc2cc(c3O[C@@H]2O[C@H](CO)[C@@H](O)[C@H](O)[C@H]2O[C@H]2C[C@](C)(N)[C@H](O)[C@H](C)O2)Oc2ccc(cc2Cl)[C@H]1O` [Vancomycin], the MIC (Staphylococcus aureus [5]; Staphylococcus aureus, broth microdilution, Example 11) was 1.5 µg/mL (≈ 1.04 µM), the “classification of MIC according to CLSI” value (Staphylococcus aureus [5]; broth microdilution MIC) was “S” and the “susceptibility category from Vitek 2” value (Staphylococcus aureus [6]) was “S”. For the same molecule, the MIC (Staphylococcus aureus [6]; Staphylococcus aureus, read-out: MIC value from Vitek 2) was 1 µg/mL (≈ 0.69 µM), the “classification of MIC per CLSI interpretation standards” value (Staphylococcus aureus [7]; LD-AST MIC, thin type) was “I” and the “MIC, direct protocol versus delayed (1 hour) inoculation protocol” value (Staphylococcus aureus [7]; mid-thick strip, 4 hours after inoculation (FIG. 28)) was “equal”. The “growth at borderline LD-AST unit (difference image of time-lapse images)” value (Staphylococcus aureus [7]; mid-thick type, unit labeled 12 μg, verified by overnight incubation) was “continued to grow”, the MIC value (Staphylococcus aureus [7]; thin type LD-AST unit (FIG. 27A), 3 and 4 hours incubation) was 3 µg/mL (≈ 2.07 µM) and the MIC (S. aureus) was 3 µg/mL (≈ 2.07 µM).
Amphotoricin B gave an MIC [8] of 2 µg/mL.
